Key:
[1] = tested on: phospho-ERK in NCI-H460 (Q61H) cells; assay: Inhibition of KRas-mediated phosphorylation of ERK (in-cell western); assay type: cell-based; settings: Homo sapiens, NCI-H460, 3 h, 3 hours compound, phospho-ERK normalized to GAPDH
Procedure, shortened: (§1)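 Following fixation in formaldehyde and permeabilization in cold methanol, ERK phosphorylated at Thr202/Tyr204 was quantified against GAPDH.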

[2] = tested on: phospho-ERK in A549 (G12S) cells; assay: as above; assay type: cell-based; settings: Homo sapiens, 3 hours compound, phospho-ERK normalized to GAPDH
Procedure, shortened: as §1

[3] = tested on: phospho-ERK in NCI-H358 (G12C) cells; assay: as above; assay type: cell-based; settings: Homo sapiens, 3 hours compound, phospho-ERK normalized to GAPDH
Procedure, shortened: as §1

[4] = tested on: phospho-ERK in PSN-1 (G12R) cells; assay: as above; assay type: cell-based; settings: Homo sapiens, PSN1, 3 hours compound, phospho-ERK normalized to GAPDH
Procedure, shortened: as §1

[5] = tested on: phospho-ERK in AsPC-1 (G12D) cells; assay: as above; assay type: cell-based; settings: Homo sapiens, ASPC1, 3 h, 3 hours compound, phospho-ERK normalized to GAPDH
Procedure, shortened: as §1

[6] = tested on: phospho-ERK in NCI-H727 (G12V) cells; assay: as above; assay type: cell-based; settings: Homo sapiens, NCI-H727, 3 h, 3 hours compound, phospho-ERK normalized to GAPDH
Procedure, shortened: as §1

[7] = tested on: phospho-ERK in MKN1 (WTdep) cells; assay: as above; assay type: cell-based; settings: Homo sapiens, MKN-1, 3 hours compound, phospho-ERK normalized to GAPDH
Procedure, shortened: as §1

[8] = tested on: phospho-ERK in HCT116 (G13D) cells; assay: as above; assay type: cell-based; settings: Homo sapiens, HCT-116, 3 hours compound, phospho-ERK normalized to GAPDH
Procedure, shortened: as §1

KRas G12V = KRas G12V (Homo sapiens, UniProt P01116, G12V); assay: biochemical;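 note: KRas binding measured by TR-FRET displacement at room temperature, IC50 fitted from percent of control values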
Method: (§2) The ability of a compound to bind to KRas was measured using a TR-FRET displacement assay. […] After a 60-minute incubation at room temperature, the reaction was measured using a BMG LABTECH CLARIO star Plus via TR-FRET. […] The POC values were fit to a 4-parameter IC50 equation and the IC50 value reported.

KRas G12A = KRas G12A (Homo sapiens, UniProt P01116, G12A); assay: biochemical;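 note: binding to KRas measured by TR-FRET displacement after one hour at room temperature, IC50 from a four-parameter fit of percent-of-control values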
Method: as §2

KRas G12D = KRas G12D (Homo sapiens, UniProt P01116, G12D); assay: biochemical;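 note: TR-FRET displacement binding assay on KRas, read after a one-hour incubation at room temperature, IC50 fitted from percent-of-control values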
Method: as §2

KRas Q61H = molecular target: T1, KRas Q61H (Homo sapiens, UniProt P01116, Q61H); assay: KRas binding assay (TR-FRET displacement);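 note: TR-FRET signal read after one hour at room temperature, IC50 derived by four-parameter fitting of percent-of-control values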
T1 construct: Biotinylated KRas (corresponding to amino acids 1-169, produced at Accelegan Inc.); biotin (biotinylated); purchased Accelegan Inc
Method: as §2

KRas G12C = KRas G12C (Homo sapiens, UniProt P01116, G12C); assay: biochemical;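 note: binding to KRas assessed by TR-FRET displacement after one hour incubation at room temperature, potency fitted from percent-of-control values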
Method: as §2

KRas G12R = KRas G12R (Homo sapiens, UniProt P01116, G12R); assay: biochemical;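 note: TR-FRET displacement assay of compound binding to KRas, read after one hour at room temperature, potency from a four-parameter fit of percent-of-control values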
Method: as §2

KRas WT = KRas WT (Homo sapiens, UniProt P01116); assay: biochemical;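 note: binding to KRas read as TR-FRET displacement after a one-hour room-temperature incubation, IC50 derived from percent-of-control values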
Method: as §2

KRas G13D = molecular target: T2, KRas G13D (Homo sapiens, UniProt P01116, G13D); assay: KRas binding assay (TR-FRET displacement);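 note: One-hour room temperature incubation before TR-FRET reading, IC50 from a four-parameter curve fit to percent-of-control data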
T2 construct: Biotinylated KRas (corresponding to amino acids 1-169, produced at Accelegan Inc.); biotin (biotinylated); purchased Accelegan Inc
Method: as §2

KRas G12S = KRas G12S (Homo sapiens, UniProt P01116, G12S); assay: biochemical;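 note: TR-FRET displacement binding to KRas, read after one hour incubation at room temperature, IC50 from four-parameter fit of percent of control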
Method: as §2

pERK in H460 cells = assay: Inhibition of KRas phosphorylation of ERK (Cisbio HTRF pERK assay); settings: Homo sapiens, NCI-H460, read-out: Inhibition (HTRF IC50) of KRas-mediated Phosphorylation of ERK, H460
Method: To harvest cells from flask using 0.05% Trypsin/EDTA solution. Add 10 mL of media to stop trypsinizing. Pipette the cells into a conical bottom 50 mL centrifuge tube and centrifuge 5 min×1000 rpm. • 2. Re-suspend the cell pellet in media, take a cell count, and then adjust the cell density using fresh media. • 3. Seed 6,000 cells into cell culture plate with 50 μL media. […] Incubate cell plate overnight in a 37° C., 5% CO2 incubator. • Compound titrations • 1. Use Tecan to complete the compound addition. Compounds start from 10 uM top, 3-fold dilution, and 10 doses. The final DMSO concentration is 0.8%. Dispensed 0.2 uM Trametinib as Min control. • 2. Incubate cell plate for 3 hrs in the incubator. • Detection with cisbio pERK HTRF kit • 1. […] At the end of the compound treatment, flick-off the media. • 3. Add 35 μL of lysis buffer per well using a Multidrop Combi. Then place on a plate agitator shaking at 300 rpm at 4° C. for 40 mins. • 4. Make up the HTRF antibody buffer. For each assay plate, mix 50 μL of d2-conjugate antibody with 950 μL of detection buffer. Similarly, mix 50 μL of Cryptate antibody with 950 μL of detection buffer. Then mix the two diluted antibodies together. • 5. Dispense 3.4 μL the antibody buffer to wells of an empty assay plate. Seal the plate and centrifuge plate 30 sec×1000 rpm. • 6. At the end of the 4° C. lysis, centrifuge the lysate plates 3 mins×1500 rpm. • 7. Use the Bravo to transfer 13.6 μL of lysate from cell culture plate to assay plate.
Then incubate assay plate for 2 hrs at room temperature. […] At the end of incubation, read plate on the Envision after centrifuging plate 30 sec× • 1000 rpm.

pERK in HCT116 cells = assay: as above; settings: Homo sapiens, HCT-116, read-out: Inhibition (HTRF IC50) of KRas-mediated Phosphorylation of ERK, HCT116
pERK in ASPC1 cells = assay: as above; settings: Homo sapiens, ASPC1, read-out: Inhibition (HTRF IC50) of KRas-mediated Phosphorylation of ERK, AsPC-1
pERK in H727 cells = assay: as above; settings: Homo sapiens, NCI-H727, read-out: Inhibition (HTRF IC50) of KRas-mediated Phosphorylation of ERK, H727

Chain of KRas G12D (P01116 1-169 isoform P01116-2 G12D): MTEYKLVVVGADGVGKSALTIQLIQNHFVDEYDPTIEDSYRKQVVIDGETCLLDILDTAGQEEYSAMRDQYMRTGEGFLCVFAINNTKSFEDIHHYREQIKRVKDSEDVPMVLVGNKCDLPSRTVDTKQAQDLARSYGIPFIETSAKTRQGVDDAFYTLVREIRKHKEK
Chain of KRas WT (P01116 1-169 isoform P01116-2): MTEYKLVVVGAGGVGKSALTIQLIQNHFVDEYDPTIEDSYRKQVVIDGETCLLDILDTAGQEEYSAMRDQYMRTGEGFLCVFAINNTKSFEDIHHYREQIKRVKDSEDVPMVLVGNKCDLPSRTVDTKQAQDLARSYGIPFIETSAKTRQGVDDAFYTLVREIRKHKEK
T1 sequence (P01116 1-169 isoform P01116-2 Q61H): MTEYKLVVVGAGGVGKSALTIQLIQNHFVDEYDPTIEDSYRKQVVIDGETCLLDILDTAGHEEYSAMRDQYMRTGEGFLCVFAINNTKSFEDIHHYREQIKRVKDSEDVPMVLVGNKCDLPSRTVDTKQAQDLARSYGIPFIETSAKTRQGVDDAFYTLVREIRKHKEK
Chain of KRas G12V (P01116 1-169 isoform P01116-2 G12V): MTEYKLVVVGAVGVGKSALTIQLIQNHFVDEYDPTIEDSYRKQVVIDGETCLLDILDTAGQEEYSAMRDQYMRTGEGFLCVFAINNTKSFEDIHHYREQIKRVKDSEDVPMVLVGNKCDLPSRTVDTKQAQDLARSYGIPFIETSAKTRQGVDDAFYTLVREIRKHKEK
Chain of KRas G12R (P01116 1-169 isoform P01116-2 G12R): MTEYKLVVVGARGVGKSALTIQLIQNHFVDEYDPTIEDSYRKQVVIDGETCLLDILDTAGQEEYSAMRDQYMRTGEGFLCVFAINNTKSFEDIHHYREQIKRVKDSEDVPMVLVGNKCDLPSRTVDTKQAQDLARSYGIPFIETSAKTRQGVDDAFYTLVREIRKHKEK
Chain of KRas G12A (P01116 1-169 isoform P01116-2 G12A): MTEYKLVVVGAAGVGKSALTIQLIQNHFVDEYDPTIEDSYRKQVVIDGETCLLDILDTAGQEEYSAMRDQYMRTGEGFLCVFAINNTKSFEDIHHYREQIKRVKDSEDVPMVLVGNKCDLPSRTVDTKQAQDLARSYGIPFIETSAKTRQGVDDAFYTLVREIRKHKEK
Chain of KRas G12C (P01116 1-169 isoform P01116-2 G12C): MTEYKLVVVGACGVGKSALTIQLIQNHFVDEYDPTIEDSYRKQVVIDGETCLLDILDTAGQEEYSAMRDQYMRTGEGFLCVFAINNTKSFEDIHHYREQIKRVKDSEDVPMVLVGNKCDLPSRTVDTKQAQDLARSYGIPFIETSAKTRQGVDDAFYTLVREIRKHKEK
T2 sequence (P01116 1-169 isoform P01116-2 G13D): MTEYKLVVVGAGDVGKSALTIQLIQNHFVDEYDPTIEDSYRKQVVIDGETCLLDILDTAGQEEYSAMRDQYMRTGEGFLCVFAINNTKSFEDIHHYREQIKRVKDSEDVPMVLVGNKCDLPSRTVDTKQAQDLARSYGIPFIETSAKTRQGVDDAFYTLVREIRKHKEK
Chain of KRas G12S (P01116 1-169 isoform P01116-2 G12S): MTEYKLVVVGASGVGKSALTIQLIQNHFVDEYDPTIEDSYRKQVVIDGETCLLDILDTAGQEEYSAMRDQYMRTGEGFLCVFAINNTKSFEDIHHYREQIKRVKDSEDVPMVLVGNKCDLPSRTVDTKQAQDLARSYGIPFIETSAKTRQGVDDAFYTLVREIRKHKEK

Structure (SMILES)	IC50 (KRas G12V) [nM]	IC50 (KRas G12A) [nM]	IC50 (KRas G12D) [nM]	IC50 (KRas Q61H) [nM]	IC50 (KRas G12C) [nM]	IC50 (KRas G12R) [nM]	IC50 (KRas WT) [nM]	IC50 (KRas G13D) [nM]	IC50 (KRas G12S) [nM]	IC50 (pERK in H460 cells) [nM]	IC50 (pERK in HCT116 cells) [nM]	IC50 (pERK in ASPC1 cells) [nM]	IC50 [1] [nM]	IC50 [2] [nM]	IC50 [3] [nM]	IC50 [4] [nM]	IC50 [5] [nM]	IC50 [6] [nM]	IC50 [7] [nM]	IC50 [8] [nM]	further results
C#Cc1c(F)ccc2cccc(-c3ncc4c(N5CCC[C@@](C)(O)C5)nc(OCC56CCCN5CCC6)nc4c3F)c12 [Example 14, (R)-1-(7-(8-ethynyl-7-fluoronaphthalen-1-yl)-8-fluoro-2-((hexahydro-1H-pyrrolizin-7a-yl)methoxy)pyrido[4,3-d]pyrimidin-4-yl)-3-methylpiperidin-3-ol]	52	58	29	80	51	109	51	61	58	–	–	–	≥ 10000	≥ 10000	725	≥ 10000	847	4580	1380	1590	–
CCc1c(F)ccc2cccc(-c3ncc4c(N5CCC[C@@](C)(O)C5)nc(OCC56CCCN5CCC6)nc4c3F)c12 [Example 15]	42	38	24	52	37	81	41	42	42	–	–	–	≥ 10000	3640	495	≥ 10000	731	≥ 10000	1260	5160	–
CCc1c(F)ccc2cccc(-c3ncc4c(N5CCCC6(CNC(=O)C6)C5)nc(OC[C@@]56CCCN5C[C@H](F)C6)nc4c3F)c12 (stereo partly drawn) [Example 37, 7-(7-(8-ethyl-7-fluoronaphthalen-1-yl)-8-fluoro-2-(((2R,7aS)-2-fluorotetrahydro-1H-pyrrolizin-7a(5H)-yl)methoxy)pyrido[4,3-d]pyrimidin-4-yl)-2,7-diazaspiro[4.5]decan-3-one]	57	52	41	88	56	93	68	88	63	–	–	–	≥ 10000	8950	1720	≥ 10000	2210	≥ 10000	1670	4360	–
C#Cc1c(F)ccc2cccc(-c3ncc4c(N5CCC[C@@](C)(O)C5)nc(OC[C@@]56CCCN5C[C@H](F)C6)nc4c3F)c12 [Example 51, (R)-1-(7-(8-ethynyl-7-fluoronaphthalen-1-yl)-8-fluoro-2-(((2R,7aS)-2-fluorohexahydro-1H-pyrrolizin-7a-yl)methoxy)pyrido[4,3-d]pyrimidin-4-yl)-3-methylpiperidin-3-ol]	35	36	21	50	35	69	32	36	38	–	–	–	≥ 10000	2640	715	≥ 10000	586	7230	873	3720	–
CCc1c(F)ccc2cc(O)cc(-c3ncc4c(N5CCCC6(CNC6=O)C5)nc(OC[C@@]56CCCN5C[C@H](F)C6)nc4c3F)c12 (stereo partly shown) [Example 146]	≤ 2	–	≤ 2	–	–	3	–	–	–	327	607	92	204	1060	15	2530	22	≥ 10000	22	1000	IC50 (pERK in H727 cells): 400 nM

Second part, led by results:

IC50 (KRas G12V) [nM]	IC50 (KRas G12A) [nM]	IC50 (KRas G12D) [nM]	IC50 (KRas Q61H) [nM]	IC50 (KRas G12C) [nM]	IC50 (KRas G12R) [nM]	IC50 (KRas WT) [nM]	IC50 (KRas G13D) [nM]	IC50 (KRas G12S) [nM]	IC50 (pERK in H460 cells) [nM]	IC50 (pERK in HCT116 cells) [nM]	IC50 (pERK in ASPC1 cells) [nM]	Structure (SMILES)	IC50 [1] [nM]	IC50 [2] [nM]	IC50 [3] [nM]	IC50 [4] [nM]	IC50 [5] [nM]	IC50 [6] [nM]	IC50 [7] [nM]	IC50 [8] [nM]	further results
≤ 2	≤ 2	≤ 2	≤ 2	≤ 2	≤ 2	≤ 2	≤ 2	≤ 2	–	–	–	CCc1c(F)ccc2cc(O)cc(-c3ncc4c(N5CCC[C@@](C)(O)C5)nc(OCC56CCCN5CCC6)nc4c3F)c12 [Example 27]	33	300	22	2920	45	232	20	88	–
≤ 2	–	6	–	–	≤ 2	–	–	–	69	179	75	CCc1c(F)ccc2cc(O)cc(-c3ncc4c(N5CC6CC(O)CC5C6)nc(OC[C@@]56CCCN5C[C@H](F)C6)nc4c3F)c12 (stereo partly shown) [Example 58]	111	455	24	1310	24	242	23	1460	IC50 (pERK in H727 cells): 45 nM
≤ 2	–	≤ 2	–	–	≤ 2	–	–	–	336	1640	126	CCc1c(F)ccc2cc(O)cc(-c3ncc4c(N5CCCn6nc(N)cc6C5)nc(OC[C@@]56CCCN5C[C@H](F)C6)nc4c3F)c12 [Example 61, 4-(4-(2-amino-7,8-dihydro-4H-pyrazolo[1,5-a][1,4]diazepin-5 (6H)-yl)-8-fluoro-2-(((2R,7aS)-2-fluorohexahydro-1H-pyrrolizin-7a-yl)methoxy)pyrido[4,3-d]pyrimidin-7-yl)-5-ethyl-6-fluoronaphthalen-2-ol]	550	699	162	≥ 10000	306	1110	46	518	IC50 (pERK in H727 cells): 250 nM
≤ 2	–	≤ 2	–	–	3	–	–	–	151	336	65	CCc1c(F)ccc2cc(O)cc(-c3ncc4c(N5CCOCC(CO)C5)nc(OC[C@@]56CCCN5C[C@H](F)C6)nc4c3F)c12 (stereo partly drawn) [Example 74, 5-ethyl-6-fluoro-4-(8-fluoro-2-(((2R,7aS)-2-fluorotetrahydro-1H-pyrrolizin-7a(5H)-yl)methoxy)-4-(6-(hydroxymethyl)-1,4-oxazepan-4-yl)pyrido[4,3-d]pyrimidin-7-yl)naphthalen-2-ol]	55	63	10	≥ 10000	72	355	8	662	IC50 (pERK in H727 cells): 84 nM
≤ 2	–	3	–	–	≤ 2	–	–	–	83	243	318	CCc1c(F)ccc2cc(O)cc(-c3ncc4c(NCc5cccnc5N)nc(OC[C@@]56CCCN5C[C@H](F)C6)nc4c3F)c12 [Example 136, 4-(4-(((2-aminopyridin-3-yl)methyl)amino)-8-fluoro-2-(((2R,7aS)-2-fluorohexahydro-1H-pyrrolizin-7a-yl)methoxy)pyrido[4,3-d]pyrimidin-7-yl)-5-ethyl-6-fluoronaphthalen-2-ol]	75	19	4	≥ 10000	351	181	7	631	IC50 (pERK in H727 cells): 52 nM
